{
  "source": "ChEMBL document CHEMBL4706484",
  "about": "“Apigenin-rivastigmine hybrids as multi-target-directed liagnds for the treatment of Alzheimer's disease” (Eur J Med Chem, 2020)",
  "key": {"Acetylcholinesterase": {"target": "Acetylcholinesterase (Homo sapiens, UniProt P22303)", "sequence (P22303 whole entry)": "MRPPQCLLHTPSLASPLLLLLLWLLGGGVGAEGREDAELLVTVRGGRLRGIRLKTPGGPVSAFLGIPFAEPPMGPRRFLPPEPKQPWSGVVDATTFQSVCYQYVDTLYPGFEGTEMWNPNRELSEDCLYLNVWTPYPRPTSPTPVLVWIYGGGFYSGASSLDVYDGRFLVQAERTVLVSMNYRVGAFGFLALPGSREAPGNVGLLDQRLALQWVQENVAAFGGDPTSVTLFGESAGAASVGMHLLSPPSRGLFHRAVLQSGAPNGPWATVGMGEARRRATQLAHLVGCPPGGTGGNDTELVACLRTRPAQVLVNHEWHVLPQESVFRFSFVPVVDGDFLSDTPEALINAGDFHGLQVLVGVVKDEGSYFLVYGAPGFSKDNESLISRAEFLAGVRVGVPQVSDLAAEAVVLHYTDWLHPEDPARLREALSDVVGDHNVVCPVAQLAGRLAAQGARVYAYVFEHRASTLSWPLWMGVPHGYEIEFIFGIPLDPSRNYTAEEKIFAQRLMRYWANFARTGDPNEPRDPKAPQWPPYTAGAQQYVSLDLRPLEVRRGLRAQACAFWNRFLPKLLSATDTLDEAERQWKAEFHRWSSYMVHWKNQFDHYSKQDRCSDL", "experiment": "Inhibition of human erythrocytes AChE using acetylthiocholine iodide as substrate measured after 15 mins by Ellman's method", "type": "tissue-based, Erythrocyte"}, "Cholinesterase [1]": {"target": "T1, Cholinesterase (Homo sapiens, UniProt P06276)", "T1 sequence (P06276 whole entry)": "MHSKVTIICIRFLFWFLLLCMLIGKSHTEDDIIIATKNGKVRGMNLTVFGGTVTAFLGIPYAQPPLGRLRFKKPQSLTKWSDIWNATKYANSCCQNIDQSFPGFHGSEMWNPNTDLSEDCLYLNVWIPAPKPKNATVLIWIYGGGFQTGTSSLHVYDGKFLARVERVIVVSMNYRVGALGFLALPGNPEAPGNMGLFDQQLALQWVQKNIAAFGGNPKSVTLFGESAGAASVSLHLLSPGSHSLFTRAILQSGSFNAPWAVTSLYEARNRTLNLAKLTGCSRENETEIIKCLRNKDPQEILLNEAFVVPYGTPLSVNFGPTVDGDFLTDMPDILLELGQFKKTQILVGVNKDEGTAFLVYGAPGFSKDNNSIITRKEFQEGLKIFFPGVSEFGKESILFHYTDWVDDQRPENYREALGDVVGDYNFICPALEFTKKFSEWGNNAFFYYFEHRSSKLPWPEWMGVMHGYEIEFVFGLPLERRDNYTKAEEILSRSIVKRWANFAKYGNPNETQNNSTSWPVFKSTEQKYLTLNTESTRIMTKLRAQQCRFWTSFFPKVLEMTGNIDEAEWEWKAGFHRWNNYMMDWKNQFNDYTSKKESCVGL", "experiment": "Inhibition of human serum BChE using acetylthiocholine iodide as substrate measured after 15 mins by Ellman's method", "type": "cell-free"}, "Cholinesterase [2]": {"target": "T1, Cholinesterase", "experiment": "Pseudo-irreversible inhibition of human serum BChE assessed as enzyme recovery activity at IC50 using undiluted compound relative to control", "type": "cell-free", "design": "scale not given: the % may be the effect or the level left"}, "Cholinesterase [3]": {"target": "T1, Cholinesterase", "experiment": "Pseudo-irreversible inhibition of human serum BChE assessed as enzyme recovery activity at 0.1 times IC50 measured at 240 mins using diluted compound relative to basal level", "type": "cell-free", "design": "scale not given: the % may be the effect or the level left"}, "[4]": {"target": "Amyloid-beta precursor protein (Homo sapiens) (UniProt P05067)", "sequence (P05067 whole entry)": "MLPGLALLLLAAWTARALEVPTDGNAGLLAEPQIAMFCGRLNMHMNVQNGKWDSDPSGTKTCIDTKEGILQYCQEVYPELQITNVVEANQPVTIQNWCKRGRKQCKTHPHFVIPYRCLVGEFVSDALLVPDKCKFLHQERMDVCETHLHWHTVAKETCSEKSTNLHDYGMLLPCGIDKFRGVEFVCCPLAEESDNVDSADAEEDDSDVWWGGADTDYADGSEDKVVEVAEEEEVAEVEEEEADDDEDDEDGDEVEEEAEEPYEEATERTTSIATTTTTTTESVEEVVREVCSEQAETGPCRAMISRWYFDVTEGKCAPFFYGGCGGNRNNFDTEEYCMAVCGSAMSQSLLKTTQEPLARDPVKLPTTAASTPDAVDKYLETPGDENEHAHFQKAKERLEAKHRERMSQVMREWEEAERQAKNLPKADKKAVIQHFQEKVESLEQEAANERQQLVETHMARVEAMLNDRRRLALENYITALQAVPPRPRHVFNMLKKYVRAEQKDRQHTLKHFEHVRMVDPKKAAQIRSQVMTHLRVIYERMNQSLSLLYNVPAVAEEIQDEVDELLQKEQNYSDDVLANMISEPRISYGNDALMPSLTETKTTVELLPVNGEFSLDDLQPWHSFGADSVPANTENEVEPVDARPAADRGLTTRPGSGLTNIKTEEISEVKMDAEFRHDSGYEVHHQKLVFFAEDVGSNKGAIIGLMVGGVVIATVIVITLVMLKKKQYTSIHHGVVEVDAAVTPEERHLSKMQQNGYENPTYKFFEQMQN", "experiment": "Inhibition of self-induced amyloid beta (1 to 42) (unknown origin) aggregation at 25 uM by ThT fluorescence assay relative to control"}, "[5]": {"experiment": "Inhibition of copper-induced amyloid beta (1 to 42) (unknown origin) aggregation at 25 uM by ThT fluorescence assay relative to control"}, "[6]": {"experiment": "Disaggregation of Copper-induced amyloid beta (1 to 42) (unknown origin) preformed fibrils at 25 uM by ThT fluorescence assay relative to control"}, "[7]": {"target": "Amyloid-beta precursor protein (Homo sapiens) (UniProt P05067)", "experiment": "Inhibition of self-induced amyloid beta (1 to 42) (unknown origin) aggregation at 25 uM measured after 24 hrs by TEM analysis"}, "PC-12 [8]": {"system": "PC-12", "experiment": "Cytotoxicity against rat PC-12 cells assessed as reduction in cell viability <= 100 uM measured after 48 hrs by MTT assay", "type": "cell-based", "settings": "pc-12, 48 h"}, "PC-12 [9]": {"system": "PC-12", "experiment": "Neuroprotective activity against H2O2-induced cell injury in rat PC-12 cells assessed as cell viability at 10 uM preincubated for 2 hrs followed by H2O2 addition and measured after 24 hrs by MTT assay (reference value: 53.8 %)", "type": "functional", "settings": "time 26 hrs, read-out: Activity"}, "[10]": {"experiment": "Metal chelating activity assessed as Cu2+-compound complex formation by measuring absorption wavelength at 37.5 uM in presence of 37.5 uM CuCl2 by UV-Vis spectroscopic analysis"}, "[11]": {"experiment": "Metal chelating activity assessed as Fe2+-compound complex formation at 37.5 uM in presence of 37.5 uM FeSO4 by UV-Vis spectrophotometric analysis"}, "[12]": {"experiment": "Metal chelating activity assessed as compound-Cu2+ complex stoichiometry ratio of 1:1 at 37.5 uM in presence of CuCl2 by UV-visible spectrophotometric analysis"}, "[13]": {"experiment": "Disaggregation of Copper-induced amyloid beta (1 to 42) (unknown origin) preformed fibrils measured after 48 hrs by TEM analysis"}, "L02": {"system": "L02", "experiment": "Hepatoprotective activity H2O2-induced cell injury in human L02 cells assessed as cell viability at 10 uM measured after 48 hrs by MTT assay (reference value: 56.89 %)", "type": "functional", "settings": "read-out: Activity"}, "[14]": {"experiment": "Permeability of the compound in PBS/EtOH (70:30) at 100 ug/ml by PAMPA-BBB assay", "type": "ADME", "settings": "dose 100 µg/ml, read-out: permeability"}, "[15]": {"experiment": "Acute toxicity in 2 dpf zebrafish assessed as maximum non-lethal concentration measured after 3 days", "design": "species or system Danio rerio", "settings": "in vivo, time 3 day"}, "[16]": {"experiment": "Acute toxicity in 2 dpf zebrafish assessed as precipitation at 20 ug/ml measured after 3 days", "design": "species or system Danio rerio", "settings": "in vivo, 72 h, dose 20 µg/ml, time 3 day"}, "[17]": {"experiment": "Toxicity in 2 dpf zebrafish at 1.39 ug/ml measured after 3 days", "design": "species or system Danio rerio", "settings": "in vivo, 72 h, dose 1.39 µg/ml, time 3 day"}, "[18]": {"experiment": "Acute toxicity in 2 dpf zebrafish assessed as yolk sac absorption delay at 4.17 ug/ml measured after 3 days relative to control", "design": "species or system Danio rerio", "settings": "in vivo, 72 h, at 4.17 µg/mL, time 3 day"}, "[19]": {"experiment": "Acute toxicity in 2 dpf zebrafish assessed as pericardial edema at 1.39 to 12.5 ug/ml measured after 3 days", "design": "species or system Danio rerio", "settings": "in vivo, 72 h, dose 1.39-12.5 µg/ml, time 3 day"}, "[20]": {"experiment": "Acute toxicity in 2 dpf zebrafish assessed as bradycardia at 1.39 to 12.5 ug/ml measured after 3 days", "design": "species or system Danio rerio", "settings": "in vivo, 72 h, dose 1.39-12.5 µg/ml, time 3 day"}, "[21]": {"experiment": "Acute toxicity in 2 dpf zebrafish assessed as absent blood flow at 1.39 to 12.5 ug/ml measured after 3 days", "type": "tissue-based, Danio rerio", "settings": "72 h, dose 1.39-12.5 µg/ml, time 3 day"}, "[22]": {"experiment": "Acute toxicity in 2 dpf zebrafish assessed as small or misshapen brain at 1.39 to 12.5 ug/ml measured after 3 days", "type": "tissue-based, Danio rerio", "settings": "in vivo, 72 h, dose 1.39-12.5 µg/ml, time 3 day"}, "[23]": {"experiment": "Acute toxicity in 2 dpf zebrafish assessed as short or misshapen jaw at 1.39 to 12.5 ug/ml measured after 3 days", "design": "species or system Danio rerio", "settings": "in vivo, 72 h, dose 1.39-12.5 µg/ml, time 3 day"}, "[24]": {"experiment": "Acute toxicity in 2 dpf zebrafish assessed as small or misshapen eyes at 1.39 to 12.5 ug/ml measured after 3 days", "design": "species or system Danio rerio", "settings": "in vivo, 72 h, dose 1.39-12.5 µg/ml, time 3 day"}, "[25]": {"experiment": "Acute toxicity in 2 dpf zebrafish assessed as dark brown liver at 1.39 to 12.5 ug/ml measured after 3 days", "design": "species or system Danio rerio", "settings": "in vivo, 72 h, dose 1.39-12.5 µg/ml, time 3 day"}, "[26]": {"experiment": "Acute toxicity in 2 dpf zebrafish assessed as abnormal tail at 1.39 to 12.5 ug/ml measured after 3 days", "design": "species or system Danio rerio", "settings": "in vivo, 72 h, dose 1.39-12.5 µg/ml, time 3 day"}, "[27]": {"experiment": "Acute toxicity in 2 dpf zebrafish assessed as abnormal notochord at 1.39 to 12.5 ug/ml measured after 3 days", "design": "species or system Danio rerio", "settings": "in vivo, 72 h, dose 1.39-12.5 µg/ml, time 3 day"}, "[28]": {"experiment": "Acute toxicity in 2 dpf zebrafish assessed as abnormal pigmentation at 1.39 to 12.5 ug/ml measured after 3 days", "design": "species or system Danio rerio", "settings": "in vivo, 72 h, dose 1.39-12.5 µg/ml, time 3 day"}, "[29]": {"experiment": "Acute toxicity in 2 dpf zebrafish assessed as body shape at 1.39 to 12.5 ug/ml measured after 3 days", "design": "species or system Danio rerio", "settings": "in vivo, 72 h, dose 1.39-12.5 µg/ml, time 3 day"}, "[30]": {"experiment": "Acute toxicity in 2 dpf zebrafish assessed as effect on liver at 1.39 to 12.5 ug/ml measured after 3 days", "design": "species or system Danio rerio", "settings": "in vivo, 72 h, dose 1.39-12.5 µg/ml, time 3 day"}, "[31]": {"experiment": "Toxicity in 3 dpf zebrafish model of AlCl3-induced AD at 12.5 to 200 microg/ml", "design": "species or system Danio rerio", "settings": "in vivo, dose 12.5-200 µg/ml"}, "Danio rerio [32]": {"species": "Danio rerio", "experiment": "Antialzheimer activity against 3 dpf zebrafish model of AlCl3-induced AD assessed as change in motility distance at 4.2 ug/ml (reference value: 5204 mm)", "type": "functional", "settings": "dose 4.2 µg/ml"}, "Danio rerio [33]": {"species": "Danio rerio", "experiment": "Antialzheimer activity against 3 dpf zebrafish model of AlCl3-induced AD assessed as motility by measuring change in speed at 1.4 ug/ml (reference value: 1.05 mm/s)", "type": "functional", "settings": "dose 1.4 µg/ml"}, "Danio rerio [34]": {"species": "Danio rerio", "experiment": "Antialzheimer activity against 3 dpf zebrafish model of AlCl3-induced AD assessed as motility by measuring change in speed at 4.2 ug/ml (reference value: 1.05 mm/s)", "type": "functional", "settings": "dose 4.2 µg/ml"}, "Danio rerio [35]": {"species": "Danio rerio", "experiment": "Protection against amyloid beta (1 to 40 residues)-induced vascular injury in transgenic zebrafish assessed as efficacy on motility at 12.5 ug/ml relative to control", "type": "functional", "settings": "dose 12.5 µg/ml"}, "Mus musculus [36]": {"system": "Mus musculus", "experiment": "Reversal of scopolamine-induced Kunming mouse model of memory impairment assessed as spontaneous alteration at 5 mg/kg by Y-maze test", "type": "functional, organism-based"}, "Mus musculus [37]": {"system": "Mus musculus", "experiment": "Antialzheimer activity in scopolamine-induced Kunming mouse model of memory impairment assessed as Q30 bases ratio (raw data) in brain hippocampus at 10 mg/kg by illumina sequencing method (reference value: 93.53 %)", "type": "functional"}},
  "note": "The source made the active and inactive calls. No cut-off for these calls is given here.",
  "data": [
    {"smiles": "CCN(C)C(=O)Oc1ccc(-c2cc(=O)c3c(O)cc(OC(=O)N(C)CC)cc3o2)cc1", "values": [
      {"measurement": "IC50", "setting": "Acetylcholinesterase", "result": 6.8, "unit": "µM"},
      {"measurement": "IC50", "setting": "Cholinesterase [1]", "result": 16.1, "unit": "µM"},
      {"measurement": "Activity", "setting": "Cholinesterase [2]", "result": 50.6, "unit": "%"},
      {"measurement": "Activity", "setting": "Cholinesterase [3]", "result": 71.7, "unit": "%"},
      {"measurement": "inhibition", "setting": "[4]", "result": 77.9, "unit": "%"},
      {"measurement": "inhibition", "setting": "[5]", "result": 78.9, "unit": "%"},
      {"measurement": "Activity", "setting": "[6]", "result": 64.6, "unit": "%"},
      {"measurement": "inhibition", "setting": "[7]", "result": "Active"},
      {"measurement": "Activity", "setting": "PC-12 [8]", "result": "Non-Toxic"},
      {"measurement": "viability at 10 µM", "setting": "PC-12 [9]", "result": 76.7, "unit": "%"},
      {"measurement": "Activity", "setting": "[10]", "result": 398, "unit": "nm"},
      {"measurement": "Activity", "setting": "[11]", "result": "inactive"},
      {"measurement": "Activity", "setting": "[12]", "result": "Active"},
      {"measurement": "Activity", "setting": "[13]", "result": "Active"},
      {"measurement": "viability at 10 µM", "setting": "L02", "result": 75.6, "unit": "%"},
      {"measurement": "Papp at 100 ug/ml", "setting": "[14]", "result": 15.5, "unit": "×10⁻⁶ cm/s"},
      {"measurement": "MNTC at 72 h", "setting": "[15]", "result": 12.5, "unit": "µg/mL"},
      {"measurement": "Activity", "setting": "[16]", "result": "Toxic"},
      {"measurement": "Activity", "setting": "[17]", "result": "Non-Toxic"},
      {"measurement": "Activity", "setting": "[18]", "result": 33.3, "unit": "%"},
      {"measurement": "Activity", "setting": "[19]", "result": "Non-Toxic"},
      {"measurement": "Activity", "setting": "[20]", "result": "Non-Toxic"},
      {"measurement": "Activity", "setting": "[21]", "result": "Non-Toxic"},
      {"measurement": "Activity", "setting": "[22]", "result": "Non-Toxic"},
      {"measurement": "Activity", "setting": "[23]", "result": "Non-Toxic"},
      {"measurement": "Activity", "setting": "[24]", "result": "Non-Toxic"},
      {"measurement": "Activity", "setting": "[25]", "result": "Non-Toxic"},
      {"measurement": "Activity", "setting": "[26]", "result": "Non-Toxic"},
      {"measurement": "Activity", "setting": "[27]", "result": "Non-Toxic"},
      {"measurement": "Activity", "setting": "[28]", "result": "Non-Toxic"},
      {"measurement": "Activity", "setting": "[29]", "result": "Non-Toxic"},
      {"measurement": "Activity", "setting": "[30]", "result": "Non-Toxic"},
      {"measurement": "Activity", "setting": "[31]", "result": "Non-Toxic"},
      {"measurement": "Activity", "setting": "Danio rerio [32]", "result": 6562, "unit": "mm"},
      {"measurement": "Activity", "setting": "Danio rerio [33]", "result": 1.8, "unit": "millimeter/sec"},
      {"measurement": "Activity", "setting": "Danio rerio [34]", "result": 1.98, "unit": "millimeter/sec"},
      {"measurement": "Efficacy", "setting": "Danio rerio [35]", "result": 64, "unit": "%"},
      {"measurement": "Activity", "setting": "Mus musculus [36]", "result": "inactive"},
      {"measurement": "Activity", "setting": "Mus musculus [37]", "result": 92.76, "unit": "%"}
    ]}
  ]
}
